The results in this text go back to patent US10226452B2, “Benzoxazolone derivatives as acid ceramidase inhibitors, and their use as medicaments” (FONDAZIONE ISTITUTO ITALIANO DI TECNOLOGIA, priority 2014, dated 2019).

The target of test [1] is cathepsin D (h) (Homo sapiens (Human), UniProt P07339). The test can be described thus: Cerep enzyme inhibition screen: cathepsin D. To be noted: mean of two determinations, read-out: Inhibitory activity (% Inh. at 10 μM), mean. The test is classed as biochemical. From the text: (§1) Compound of Example 25 falling in both Formula (I) and (Ia) was selected to be tested for off-target effects on a set of enzymes that include proteases (aspartic, cysteine, and serine), cyclooxygenases as well as lipoxygenases and group IV phospholipase (sPLA2) (Table 3). [table]
Sequence of cathepsin D (h) (P07339 65-412): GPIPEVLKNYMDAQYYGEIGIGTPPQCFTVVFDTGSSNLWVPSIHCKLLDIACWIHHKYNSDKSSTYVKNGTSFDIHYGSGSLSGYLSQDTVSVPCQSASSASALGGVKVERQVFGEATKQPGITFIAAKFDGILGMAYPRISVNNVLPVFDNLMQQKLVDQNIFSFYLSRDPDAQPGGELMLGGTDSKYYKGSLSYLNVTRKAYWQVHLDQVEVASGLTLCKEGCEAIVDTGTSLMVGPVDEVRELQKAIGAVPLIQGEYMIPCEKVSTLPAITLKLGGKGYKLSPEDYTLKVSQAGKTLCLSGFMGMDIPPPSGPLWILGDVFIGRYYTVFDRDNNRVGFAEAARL

The target of test [2] is caspase-8 (h) (Homo sapiens (Human), UniProt Q14790). As to the kind of experiment: Cerep enzyme inhibition screen: caspase-8. The test is classed as biochemical. The following applies: mean of two determinations, read-out: Inhibitory activity (% Inh. at 10 μM), mean.
Sequence of caspase-8 (h) (Q14790 217-374): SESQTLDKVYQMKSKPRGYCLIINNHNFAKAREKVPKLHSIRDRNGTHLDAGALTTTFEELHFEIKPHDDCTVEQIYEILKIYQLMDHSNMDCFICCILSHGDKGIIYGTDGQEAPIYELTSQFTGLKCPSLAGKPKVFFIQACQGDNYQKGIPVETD
Sequence of caspase-8 (h) (Q14790 385-479): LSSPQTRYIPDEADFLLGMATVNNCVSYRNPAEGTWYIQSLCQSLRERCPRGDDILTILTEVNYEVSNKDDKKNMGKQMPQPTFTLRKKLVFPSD
Excerpt: as §1

For test [3], the target named is MMP-2 (h) (Homo sapiens (Human), UniProt P08253). The test can be described thus: Cerep enzyme inhibition screen: MMP-2. The test is classed as biochemical. The following applies: mean of two determinations, read-out: Inhibitory activity (% Inh. at 10 μM), mean.
Sequence of MMP-2 (h) (P08253 110-660): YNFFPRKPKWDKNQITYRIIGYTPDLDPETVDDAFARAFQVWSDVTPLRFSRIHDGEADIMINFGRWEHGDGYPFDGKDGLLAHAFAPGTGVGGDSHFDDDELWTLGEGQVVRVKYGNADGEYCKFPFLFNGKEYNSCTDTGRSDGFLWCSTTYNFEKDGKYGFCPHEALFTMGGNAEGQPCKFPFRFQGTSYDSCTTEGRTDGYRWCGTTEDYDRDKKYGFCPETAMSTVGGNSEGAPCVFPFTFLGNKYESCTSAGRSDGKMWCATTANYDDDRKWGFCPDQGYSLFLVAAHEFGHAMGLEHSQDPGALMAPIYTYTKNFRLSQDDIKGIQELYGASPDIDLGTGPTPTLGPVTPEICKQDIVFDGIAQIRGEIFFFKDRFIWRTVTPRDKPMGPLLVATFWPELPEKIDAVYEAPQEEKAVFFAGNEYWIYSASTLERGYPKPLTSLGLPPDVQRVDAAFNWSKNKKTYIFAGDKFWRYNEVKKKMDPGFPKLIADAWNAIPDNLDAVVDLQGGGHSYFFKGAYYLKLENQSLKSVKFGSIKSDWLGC
Excerpt: as §1

For test [4], the system named is Raw264.7 cells. The test can be described thus: sphingosine and ceramide levels in RAW264.7 cells. The test is classed as cell-based, mouse. The following applies: 0.1-20 μM, 3 hours. The method, then:
Specifically it is reported the concentration response of compound of Example 25 or vehicle (0.1% DMSO in DMEM) on AC activity and ceramide levels in RAW264.7 murine cell line. (A) Intact cells were treated with compound of Example 25 (0.1-20 μM) or vehicle and AC activity was measured 3 hours later in cell lysates. (B-E) Intact cells were exposed to compound of Example 25 (0.1-20 μM) for 3 hours and sphingosine/sphinganine (B), dihydroceramides (C), medium chain ceramides (D), long chain ceramides (E) were quantified. Results are expressed as mean±s.e.m. (n=3). *p<0.05, **p<0.01, ***p<0.001 vs vehicle, two-way ANOVA followed by Dunnet.
Lipids were extracted from mouse tissue lysate with a chloroform/MeOH mixture (2:1 v/v, 3 mL) containing internal standards. The organic phase was collected, dried under nitrogen, and dissolved in chloroform/MeOH (1:3 v/v) for LC-MS analyses. Ceramides, sphingosine and sphinganine were analyzed by LC-MS/MS, using a Waters Acquity UPLC coupled with a Waters Xevo TQMS and interfaced with ESI. […]
Tissue-derived sphingosine and sphinganine were identified by comparison of their LC retention times and MS^2 fragmentation patterns with those of authentic standards (Avanti Polar Lipids). Extracted ion chromatograms were used to quantify sphingosine ([…], m/z 300.5>282.5) and sphinganine standard (C18:0, m/z 303>285). […]

Test [5] has as its target AC (Homo sapiens (Human), UniProt Q13510). As to the kind of experiment: AC activity in SW403 human colon adenocarcinoma cells. It counts as cell-based. The protocol: (A) Intact cells were treated with compound of Example 25 (0.1-20 μM) or vehicle and AC activity was measured 3 hours later in cell lysates. (B-E) Intact cells were exposed to compound of Example 25 (0.1-20 μM) for 3 hours and sphingosine/sphinganine (B), dihydroceramides (C), medium chain ceramides (D), long chain ceramides (E) were quantified. Results are expressed as mean±s.e.m. (n=3). *p<0.05, **p<0.01, ***p<0.001 vs vehicle, two-way ANOVA followed by Dunnet.
(A) Intact cells were treated with compound of Example 25 (20 μM) or vehicle and AC activity was measured 1 to 48 hours later in cell lysates. (B-E) Intact cells were exposed to compound of Example 25 (20 μM) and sphingosine (B), C16:0 dihydroceramide (C), C16:0 ceramide (D) were quantified. Results are expressed as mean±s.e.m. (n=3). *p<0.05, **p<0.01, ***p<0.001 vs vehicle, two-way ANOVA followed by Dunnet.
hAC protein preparation (10 μg) was preincubated with inhibitors (final DMSO concentration 1%) in assay buffer (100 mM sodium phosphate, 0.1% Nonidet P-40, 150 mM NaCl, 3 mM DTT, 100 mM sodium citrate, pH 4.5) for 30 min at 37° C. Reactions were started by the addition of 50 μM N-lauroyl ceramide (Nu-Chek Prep, Elysian, Minn.) and carried on for 30 min at 37° C. Reactions were stopped by addition of a mixture of chloroform/methanol (2:1, vol/vol) containing 1 nmol 11-lauroleic acid (NuChek Prep). The organic phases were collected, dried under nitrogen and analyzed by UPLC/MS (Acquity, Waters). In the negative-ion mode monitoring the reaction product (lauric acid, m/z=199) using 11-lauroleic acid as internal standard. […]
The [M−H]^− ion was monitored in the selected-ion monitoring mode (m/z values: lauric acid 199, 11-lauroleic acid 197.35). […] Inhibition of AC activity was calculated as reduction of lauric acid in the samples compared to vehicle controls. IC50 values were calculated by non-linear regression analysis of log [concentration]/inhibition curves using GraphPad Prism 5 (GraphPad Software Inc., CA—USA) applying a standard slope curve fitting.

The mark [6] stands for this setting: 20 μM, AC activity and sphingolipid levels.

SMILES strings stand for the structures.

Sequence of AC (Q13510 22-142): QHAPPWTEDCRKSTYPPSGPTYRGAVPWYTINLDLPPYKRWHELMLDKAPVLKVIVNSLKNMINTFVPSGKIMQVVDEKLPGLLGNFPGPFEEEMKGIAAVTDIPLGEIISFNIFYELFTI
Sequence of AC (Q13510 143-395): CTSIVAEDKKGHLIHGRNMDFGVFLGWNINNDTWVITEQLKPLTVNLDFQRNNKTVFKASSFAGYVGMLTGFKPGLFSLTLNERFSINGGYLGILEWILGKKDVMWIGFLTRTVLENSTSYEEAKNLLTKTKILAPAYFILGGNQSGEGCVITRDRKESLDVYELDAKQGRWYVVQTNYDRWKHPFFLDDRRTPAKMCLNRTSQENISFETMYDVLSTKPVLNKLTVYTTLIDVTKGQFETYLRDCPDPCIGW

`O=C(NCCCCc1ccccc1)n1c(=O)oc2cc(-c3ccc(F)cc3)ccc21` [Example 25, 6-(4-Fluorophenyl)-2-oxo-N-(4-phenylbutyl)-1,3-benzoxazole-3-carboxamide]: the inhibition at 10 µM in test [1] turned out to be 67%. Further, the inhibition at 10 µM in test [2] was -0.9%. The inhibition at 10 µM in test [3] was found to be 7.2%. In addition, in test [4], the “di-hydro ceramides and ceramide species levels” value is “intracellular accumulation of various di-hydro ceramides and ceramide species”; the sphingosine levels entry is “parallel decrease in sphingosine levels”. Moreover, in test [5] (setting [6]), the “duration of effects (timecourse)” value is at least 6 h and the “onset of significant effects (timecourse)” value was at most 1 h. In test [5] (0.1-20 μM, 3 hours), the AC activity entry is “concentration dependent reduction in AC activity”.
